According to patent US8247211B2, “Glycopeptide antibiotics” (American Cyanamid Company, priority 2001, dated 2012):
In brackets after ≈: the same amount, converted by molar mass.

Legend:
[1] = test system: Enterococcus faecalis (GC 2246), vancomycin resistant strain; test: Acute lethal infection in mice (ED50); format: in vivo; conditions: female CD-1 mice, intraperitoneal challenge, intravenous dose 30 min. after infection, 7 day survival ratios
Summary of the method: (§1)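 Bacteria suspended in Trypticase Soy Broth or hog gastric mucin are injected intraperitoneally into female CD-1 mice at a dose killing untreated animals within 24-48 hr. Thirty minutes later, test agent is administered intravenously. Survival at day 7 is scored.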

[2] = test system: Staphylococcus aureus-SMITH (GC 4543); test: Acute lethal infection in mice (ED50); format: in vivo; conditions: female CD-1 mice, intraperitoneal challenge, intravenous dose 30 min. after infection, 7 day survival ratios
Summary of the method: as §1

Enterococcus sp. = test: In vitro antibacterial evaluation: minimum inhibitory concentration (MIC), broth dilution method; format: cell-based
Summary of the method: (§2)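 First, organisms are seeded at 5×10^5 CFU/mL into Muller-Hinton II […]. Next, antibiotic is applied across 64-0.06 μg/mL by broth dilution (NCCLS M7-A2). Finally, the lowest inhibitory concentration is recorded as MIC.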

Escherichia coli = test: as above; format: cell-based
Summary of the method: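 Broth dilution per NCCLS M7-A2 in Muller-Hinton II […], inoculum 5×10^5 CFU/mL, antibiotic tested over 64-0.06 μg/mL. MIC is taken as the lowest concentration that inhibits growth. Panel includes recent clinical isolates resistant to methicillin, penicillin and/or vancomycin.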

Streptococcus sp. = test: as above; format: cell-based
Summary of the method: as §2

Staphylococcus sp. = test: as above; format: cell-based; conditions: for MIC Staphylococcus haemolyticus (GC 4546): strain GC 4546; for MIC Coagulase Negative Staphylococcus (GC 4547): strain GC 4547; for MIC Coagulase Negative Staphylococcus (GC 4548): strain GC 4548; for MIC Coagulase Negative Staphylococcus (GC 4549): strain GC 4549; for MIC Coagulase Negative Staphylococcus (GC 4551): strain GC 4551; for MIC Coagulase Negative Staphylococcus (ID-3941): strain ID-3941
Summary of the method: as §2

[3] = broth dilution, 18 hours at 35° C.
[4] = strain GC 4543, 18 hours at 35° C.
[5] = broth dilution, 5×10^5 CFU/mL, 18 hours at 35° C.

CC(c1ccccc1)C1NC(=O)CNC(=O)C(CO)NC(=O)C(C(O)C2CNC(=N)N2C2OC(CO)C(O)C(O)C2O)NC(=O)C(C(O)C2CNC(=N)N2)NC(=O)C(Cc2ccc(OC3OC(CO)C(OC4OC(COC(=O)C(c5ccccc5)c5ccccc5)C(O)C(O)C4O)C(O)C3O)cc2)NC1=O (stereo not drawn) [Example 96c, Cyclo[glycyl-β-methylphenylalanyl-O-[4-O-[6-O-(diphenylacetyl)hexopyranosyl)hexopyranosyl]tyrosyl-3-(2-iminoimidazolidin-4-yl)seryl-3-(3-hexopyranosyl-2-iminoimidazolidin-4-yl)serylseryl]]
median effective dose (ED50), Enterococcus faecalis (GC 2246) [1]: 5.2 mg/kg
median effective dose (ED50), Staphylococcus aureus-SMITH (GC 4543) [2]: 0.29 mg/kg
MIC Enterococcus faecalis (GC 2242) (Enterococcus sp.; Enterococcus faecalis (GC 2242), broth dilution, 18 hours at 35° C.): 1 µg/mL (≈ 0.671 µM)
MIC Enterococcus faecalis (ATCC 29212) (Enterococcus sp.; strain ATCC 29212): 2 µg/mL (≈ 1.34 µM)
MIC Enterococcus faecalis (GC 2242) (Enterococcus sp.; strain GC 2242): 1 µg/mL (≈ 0.671 µM)
MIC Enterococcus faecium (GC 2243) (Enterococcus sp.; strain GC 2243): 2 µg/mL (≈ 1.34 µM)
MIC Enterococcus faecalis (GC 4552) (Enterococcus sp.; strain GC 4552): 2 µg/mL (≈ 1.34 µM)
MIC Enterococcus faecalis (GC 4553) (Enterococcus sp.; strain GC 4553): 2 µg/mL (≈ 1.34 µM)
MIC Enterococcus faecalis (GC 4554) (Enterococcus sp.; strain GC 4554): 2 µg/mL (≈ 1.34 µM)
MIC Enterococcus faecium (GC 4556) (Enterococcus sp.; strain GC 4556): 2 µg/mL (≈ 1.34 µM)
MIC Enterococcus faecium (GC 4557) (Enterococcus sp.; strain GC 4557): 1 µg/mL (≈ 0.671 µM)
MIC Enterococcus avium (GC 4558) (Enterococcus sp.; strain GC 4558): 2 µg/mL (≈ 1.34 µM)
MIC Escherichia coli (ATCC 25922) (Escherichia coli; strain ATCC 25922): 64 µg/mL (≈ 43 µM)
MIC Streptococcus agalactiae (GC 4564) (Streptococcus sp.; Streptococcus agalactiae (GC 4564), broth dilution, 18 hours at 35° C.): <0.06 µg/mL
MIC Streptococcus pneumoniae (GC 4565) (Streptococcus sp.; Streptococcus pneumoniae (GC 4565), broth dilution, 18 hours at 35° C.): <0.06 µg/mL
MIC Streptococcus pyogenes (ID-3187) (Streptococcus sp.; Streptococcus pyogenes (ID-3187), broth dilution, 18 hours at 35° C.): <0.06 µg/mL
MIC Streptococcus agalactiae (GC 4564) (Streptococcus sp.; strain GC 4564): <0.06 µg/mL
MIC Streptococcus pneumoniae (GC 4565) (Streptococcus sp.; strain GC 4565): <0.06 µg/mL
MIC Streptococcus pyogenes (ID-3187) (Streptococcus sp.; strain ID-3187): <0.06 µg/mL
MIC Staphylococcus aureus (ATCC 29213) (Staphylococcus sp.; [3]): 1 µg/mL (≈ 0.671 µM)
MIC Staphylococcus aureus (GC 1131) (Staphylococcus sp.; [3]): 0.5 µg/mL (≈ 0.336 µM)
MIC Staphylococcus aureus (GC 4541) (Staphylococcus sp.; [3]): 0.5 µg/mL (≈ 0.336 µM)
MIC Staphylococcus aureus (GC 4542) (Staphylococcus sp.; [3]): 1 µg/mL (≈ 0.671 µM)
MIC Staphylococcus aureus (GC 4544) (Staphylococcus sp.; [3]): 1 µg/mL (≈ 0.671 µM)
MIC Staphylococcus aureus (GC 4545) (Staphylococcus sp.; [3]): 0.5 µg/mL (≈ 0.336 µM)
MIC Staphylococcus aureus-SMITH (GC 4543) (Staphylococcus sp.; [4]): 0.5 µg/mL (≈ 0.336 µM)
MIC Staphylococcus haemolyticus (GC 4546) (Staphylococcus sp.): 0.5 µg/mL (≈ 0.336 µM)
MIC Coagulase Negative Staphylococcus (GC 4547) (Staphylococcus sp.): 1 µg/mL (≈ 0.671 µM)
MIC Coagulase Negative Staphylococcus (GC 4548) (Staphylococcus sp.): 0.25 µg/mL (≈ 0.168 µM)
MIC Coagulase Negative Staphylococcus (GC 4549) (Staphylococcus sp.): 1 µg/mL (≈ 0.671 µM)
MIC Coagulase Negative Staphylococcus (GC 4551) (Staphylococcus sp.): 1 µg/mL (≈ 0.671 µM)
MIC Coagulase Negative Staphylococcus (ID-3941) (Staphylococcus sp.): 0.5 µg/mL (≈ 0.336 µM)
MIC Staphylococcus aureus-SMITH (GC 4543) (Staphylococcus sp.; strain SMITH GC 4543, broth dilution, 18 hours at 35° C.): 0.5 µg/mL (≈ 0.336 µM)

CCCC(CCC)C(=O)OCC1OC(OC2C(CO)OC(Oc3ccc(CC4NC(=O)C(C(C)c5ccccc5)NC(=O)CNC(=O)C(CO)NC(=O)C(C(O)C5CNC(=N)N5C5OC(CO)C(O)C(O)C5O)NC(=O)C(C(O)C5CNC(=N)N5)NC4=O)cc3)C(O)C2O)C(O)C(O)C1O (stereo not drawn) [Example 99c, Cyclo[glycyl-β-methylphenylalanyl-O-[4-O-[6-O-(2-propylpentanoyl)hexopyranosyl]-hexopyranosyl]tyrosyl-3-(2-iminoimidazolidin-4-yl)seryl-3-(3-hexopyranosyl-2-iminoimidazolidin-4-yl)serylseryl]]
median effective dose (ED50), Enterococcus faecalis (GC 2246) [1]: 4.3 mg/kg
median effective dose (ED50), Staphylococcus aureus-SMITH (GC 4543) [2]: 0.52 mg/kg
MIC Enterococccus avium (GC 4558) (Enterococcus sp.; [5]): 4 µg/mL (≈ 2.81 µM)
MIC Enterococccus faecalis (ATCC 29212) (Enterococcus sp.; [5]): 4 µg/mL (≈ 2.81 µM)
MIC Enterococccus faecalis (GC 4552) (Enterococcus sp.; [5]): 4 µg/mL (≈ 2.81 µM)
MIC Enterococccus faecalis (GC 4553) (Enterococcus sp.; [5]): 4 µg/mL (≈ 2.81 µM)
MIC Enterococccus faecalis (GC 4554) (Enterococcus sp.; [5]): 4 µg/mL (≈ 2.81 µM)
MIC Enterococccus faecium (GC 2243) (Enterococcus sp.; [5]): 4 µg/mL (≈ 2.81 µM)
MIC Enterococccus faecium (GC 4556) (Enterococcus sp.; [5]): 4 µg/mL (≈ 2.81 µM)
MIC Enterococccus faecium (GC 4557) (Enterococcus sp.; [5]): 2 µg/mL (≈ 1.41 µM)
MIC Enterococcus faecalis (GC 2242) (Enterococcus sp.; [5]): 4 µg/mL (≈ 2.81 µM)
MIC Escherichia coli (ATCC 25922) (Escherichia coli; 5×10^5 CFU/mL, 18 hours at 35° C.): 64 µg/mL (≈ 45 µM)
MIC Streptococcus agalactiae (GC 4564) (Streptococcus sp.; [5]): <0.5 µg/mL
MIC Streptococcus pneumoniae (GC 4565) (Streptococcus sp.; [5]): <0.5 µg/mL
MIC Streptococcus pyogenes (ID-3187) (Streptococcus sp.; [5]): <0.5 µg/mL
MIC Staphylococcus aureus (ATCC 29213) (Staphylococcus sp.; strain ATCC 29213): 1 µg/mL (≈ 0.703 µM)
MIC Staphylococcus aureus (GC 1131) (Staphylococcus sp.; strain GC 1131): 2 µg/mL (≈ 1.41 µM)
MIC Staphylococcus aureus (GC 4541) (Staphylococcus sp.; strain GC 4541): 2 µg/mL (≈ 1.41 µM)
MIC Staphylococcus aureus (GC 4542) (Staphylococcus sp.; strain GC 4542): 1 µg/mL (≈ 0.703 µM)
MIC Staphylococcus aureus-SMITH (GC 4543) (Staphylococcus sp.; [4]): 1 µg/mL (≈ 0.703 µM)
MIC Staphylococcus aureus-SMITH (GC 4543) (Staphylococcus sp.; strain GC 4543, broth dilution, 18 hours at 35° C.): 1 µg/mL (≈ 0.703 µM)
MIC Staphylococcus aureus (GC 4544) (Staphylococcus sp.; strain GC 4544): 2 µg/mL (≈ 1.41 µM)
MIC Staphylococcus aureus (GC 4545) (Staphylococcus sp.; strain GC 4545): 1 µg/mL (≈ 0.703 µM)
MIC Staphylococcus haemolyticus (GC 4546) (Staphylococcus sp.): 1 µg/mL (≈ 0.703 µM)
MIC Staphylococcus haemolyticus (GC 4546) (Staphylococcus sp.; [3]): 1 µg/mL (≈ 0.703 µM)
MIC Coagulase Negative Staphylococcus (GC 4547) (Staphylococcus sp.): 1 µg/mL (≈ 0.703 µM)
MIC Coagulase Negative Staphylococcus (GC 4547) (Staphylococcus sp.; [3]): 1 µg/mL (≈ 0.703 µM)
MIC Coagulase Negative Staphylococcus (GC 4548) (Staphylococcus sp.): 1 µg/mL (≈ 0.703 µM)
MIC Coagulase Negative Staphylococcus (GC 4548) (Staphylococcus sp.; [3]): 1 µg/mL (≈ 0.703 µM)
MIC Coagulase Negative Staphylococcus (GC 4549) (Staphylococcus sp.): 1 µg/mL (≈ 0.703 µM)
MIC Coagulase Negative Staphylococcus (GC 4549) (Staphylococcus sp.; [3]): 1 µg/mL (≈ 0.703 µM)
MIC Coagulase Negative Staphylococcus (GC 4551) (Staphylococcus sp.): 2 µg/mL (≈ 1.41 µM)
MIC Coagulase Negative Staphylococcus (GC 4551) (Staphylococcus sp.; [3]): 2 µg/mL (≈ 1.41 µM)
MIC Coagulase Negative Staphylococcus (ID-3941) (Staphylococcus sp.): 1 µg/mL (≈ 0.703 µM)
MIC Coagulase Negative Staphylococcus (ID-3941) (Staphylococcus sp.; [3]): 1 µg/mL (≈ 0.703 µM)
